Experimental data taken from patent publication US8536202B2, “Triazole-substituted anthranilamides as pesticides” (Bayer Cropscience AG, priority 2010, dated 2013).
Like-named read-outs stand apart in the source and are kept apart here.

Key:
[1] = system: larvae of the mustard beetle (Phaedon cochleariae); assay: Phaedon test (PHAECO spray treatment); assay type: in vivo; settings: 168 h, 100 g/ha, after 7 days, read-out: activity in %
Experimental: (§1) Solvents: 78.0 parts by weight of acetone • • 1.5 parts by weight of dimethylformamide
(§2) Emulsifier: 0.5 part by weight of alkylaryl polyglycol ether
(§3) An appropriate preparation of active compound is prepared by mixing 1 part by weight of active compound with the stated amounts of solvent and emulsifier and diluting the concentrate with emulsifier-containing water to the desired concentration.
After 7 days, the activity in % is ascertained. Here, 100% means that all of the beetle larvae have been killed; 0% means that no beetle larvae have been killed.

[2] = system: caterpillars of the armyworm (Spodoptera frugiperda); assay: Spodoptera frugiperda test (SPODFR spray treatment); assay type: in vivo; settings: 168 h, after 7 days; for pest or weed control at 100 g/ha: read-out: activity in %
Experimental: as §1, §2, §3
Leaf discs of maize (Zea mays) are sprayed with a preparation of active compound at the desired concentration and, after drying, are populated with caterpillars of the armyworm (Spodoptera frugiperda).
After 7 days, the activity in % is ascertained. Here, 100% means that all of the caterpillars have been killed; 0% means that no caterpillar has been killed.

[3] = log P determination by HPLC on reversed-phase columns (EEC Directive 79/831 Annex V.A8); assay type: physicochemical; settings: pH 2.7
Experimental: Determination by LC-MS in the acidic range takes place at a pH of 2.7 using 0.1% aqueous formic acid and acetonitrile (containing 0.1% formic acid) as eluents, with a linear gradient from 10% acetonitrile to 95% acetonitrile.
Calibration was carried out using unbranched alkan-2-ones (having 3 to 16 carbon atoms) with known log P values (the log P values are determined from the retention times by linear interpolation between two successive alkanones).

[4] = reversed-phase C18 HPLC column, HPLC on reversed-phase columns (C 18), EEC Directive 79/831 Annex V.A8, read-out: logP

chromatographic logP [3, 4]	SMILES	pest or weed control at 100 g/ha [1]	pest or weed control at 100 g/ha [2]	chromatographic logP [3]	pest or weed control at 20 g/ha ([2]; 20 g/ha)
4.86	Cc1cc(I)cc(C(=O)NC(C)C2CC2)c1NC(=O)c1cc(Cn2ncc(C(F)(C(F)(F)F)C(F)(F)F)n2)nn1-c1ncccc1Cl (centres unmarked) [Example 266]	100%	100%	–	–
3.93	Cc1cc(C#N)cc(C(=O)NC(C)(C)C)c1NC(=O)c1cc(Cn2ncc(C(F)(F)F)n2)nn1-c1ccccc1Cl [Example 285]	100%	100%	–	–
–	Cc1cc(Cl)cc(C(=O)NCC2CC2)c1NC(=O)c1cc(Cn2cc(C(F)(F)F)nn2)nn1-c1ncccc1Cl [Example 195]	100%	100%	3.22	–
–	O=C(NC1CCC1)c1cc(Cl)cc(Cl)c1NC(=O)c1cc(Cn2ncc(C(F)(F)F)n2)nn1-c1ncccc1Cl [Example 153]	100%	100%	3.56	–
–	CNC(=O)c1cc(C#N)cc(C)c1NC(=O)c1cc(Cn2nc3cc(OC(F)(F)F)cc(Br)c3n2)nn1-c1ncccc1Cl [Example 100]	100%	100%	3.78	–
–	Cc1cc(Cl)cc(C(=O)NCC2CC2)c1NC(=O)c1cc(Cn2nc(C(F)(F)F)c(C(F)(F)F)n2)nn1-c1ncccc1Cl [Example 406]	100%	100%	4.29	–
–	CNC(=O)c1cc(Cl)cc(C)c1NC(=O)c1cc(Cn2ncc(-c3cccc(Cl)c3)n2)nn1-c1ncccc1Cl [Example 28]	100%	100%	3.63	–
3.46	CNC(=O)c1cc(C#N)cc(C)c1NC(=O)c1cc(Cn2cc(C(F)(C(F)(F)F)C(F)(F)F)nn2)nn1-c1ccccc1Cl [Example 295]	100%	100%	–	–
–	Cc1cc(C#N)cc(C(=O)NC(C)(C)C)c1NC(=O)c1cc(Cn2ncc(-c3ccc(Cl)cc3Cl)n2)nn1-c1ncccc1Cl [Example 63]	100%	100%	4.67	–
–	NC(=O)c1cc(Cl)cc(Cl)c1NC(=O)c1cc(Cn2ncc(C(F)(F)F)n2)nn1-c1ncccc1Cl [Example 145]	100%	100%	2.69	–
3.88	CNC(=O)c1cc(C#N)cc(C)c1NC(=O)c1cc(Cn2ncc(C(F)(C(F)(F)F)C(F)(F)F)n2)nn1-c1ccccc1Cl [Example 297]	100%	100%	–	–
–	CNC(=O)c1cc(C#N)cc(C)c1NC(=O)c1cc(Cn2nnc3c(Cl)cc(C(F)(F)F)cc32)nn1-c1ncccc1Cl [Example 98]	100%	100%	3.24	–
–	Cc1cc(I)cc(C(=O)NC(C)C)c1NC(=O)c1cc(Cn2ncc(C(F)(F)F)n2)nn1-c1ncccc1Cl [Example 161]	100%	100%	3.73	–
–	Cc1cc(I)cc(C(=O)NC(C)(C)C)c1NC(=O)c1cc(Cn2nc(C(F)(F)F)c(C(F)(F)F)n2)nn1-c1ncccc1Cl [Example 404]	100%	100%	4.84	–
–	CNC(=O)c1cc(C#N)cc(C)c1NC(=O)c1cc(Cn2nnc3c(Br)cc(OC(F)(F)F)cc32)nn1-c1ncccc1Cl [Example 99]	100%	100%	3.37	–
–	CNC(=O)c1cc(Cl)cc(C)c1NC(=O)c1cc(Cn2cc(-c3ccccc3Cl)nn2)nn1-c1ncccc1Cl [Example 19]	100%	100%	2.74	–
4.12	Cc1cc(C#N)cc(C(=O)NC2(C3CC3)CC2)c1NC(=O)c1cc(Cn2ncc(C(F)(C(F)(F)F)C(F)(F)F)n2)nn1-c1ncccc1Cl [Example 283]	100%	100%	–	–
–	CNC(=O)c1cc(C#N)cc(C)c1NC(=O)c1cc(Cn2ncc(-c3ccccc3Cl)n2)nn1-c1ncccc1Cl [Example 43]	100%	100%	3.21	–
–	CCNC(=O)c1cc(I)cc(C)c1NC(=O)c1cc(Cn2cc(C(F)(F)C(F)(F)F)nn2)nn1-c1ncccc1Cl [Example 311]	100%	100%	3.49	–

chromatographic logP [3, 4]	SMILES	pest or weed control at 100 g/ha [1]	pest or weed control at 100 g/ha [2]	chromatographic logP [3]	pest or weed control at 20 g/ha ([2]; 20 g/ha)
–	CNC(=O)c1cc(Cl)cc(C)c1NC(=O)c1cc(Cn2cc(-c3ccc(Cl)cc3Cl)nn2)nn1-c1ncccc1Cl [Example 18]	100%	100%	3.2	–
–	Cc1cc(C#N)cc(C(=O)NC(C)(C)C)c1NC(=O)c1cc(Cn2cc(-c3ccc(Cl)cc3Cl)nn2)nn1-c1ncccc1Cl [Example 55]	100%	100%	4.06	–
2.93	Cc1cc(C#N)cc(C(=O)NC2CC2)c1NC(=O)c1cc(Cn2cc(C(F)(F)F)nn2)nn1-c1ccccc1Cl [Example 296]	100%	100%	–	–
–	Cc1cc(I)cc(C(=O)NC(C)(C)C)c1NC(=O)c1cc(Cn2cc(C(F)(F)F)nn2)nn1-c1ncccc1Cl [Example 211]	100%	100%	3.72	–
–	CC(NC(=O)c1cc(Cl)cc(Cl)c1NC(=O)c1cc(Cn2cc(C(F)(F)F)nn2)nn1-c1ncccc1Cl)C1CC1 (centres unmarked) [Example 198]	100%	100%	3.38	–
–	CNC(=O)c1cc(Cl)cc(C)c1NC(=O)c1cc(Cn2nnc3cc([N+](=O)[O-])ccc32)nn1-c1ncccc1Cl [Example 71]	100%	100%	2.64	–
–	Cc1cc(I)cc(C(=O)NC(C)C2CC2)c1NC(=O)c1cc(Cn2ncc(C(F)(F)F)n2)nn1-c1ncccc1Cl (centres unmarked) [Example 158]	100%	100%	4.05	–
–	Cc1cc(I)cc(C(=O)NC2CC2)c1NC(=O)c1cc(Cn2ncc(C(F)(C(F)(F)F)C(F)(F)F)n2)nn1-c1ncccc1Cl [Example 272]	100%	–	4.26	100%
–	Cc1cc(C#N)cc(C(=O)NC(C)C)c1NC(=O)c1cc(Cn2nc(C(F)(F)F)c(C(F)(F)F)n2)nn1-c1ncccc1Cl [Example 398]	100%	100%	3.84	–
–	Cc1cc(C#N)cc(C(=O)NC2CC2)c1NC(=O)c1cc(Cn2nc(C(F)(F)F)c(C(F)(F)F)n2)nn1-c1ncccc1Cl [Example 399]	100%	100%	3.59	–
–	CNC(=O)c1cc(Cl)cc(C)c1NC(=O)c1cc(Cn2nc3cc(OC(F)(F)F)cc(Br)c3n2)nn1-c1ncccc1Cl [Example 91]	100%	100%	4.17	–
4.43	Cc1cc(I)cc(C(=O)NC(C)(C)C)c1NC(=O)c1cc(Cn2cc(C(F)(C(F)(F)F)C(F)(F)F)nn2)nn1-c1ncccc1Cl [Example 236]	100%	100%	–	–
3.45	CNC(=O)c1cc(Cl)cc(C)c1NC(=O)c1cc(Cn2ncc(C(F)(F)F)n2)nn1-c1ccccc1Cl [Example 287]	100%	100%	–	–
–	Cc1cc(Cl)cc(C(=O)NC2CC2)c1NC(=O)c1cc(Cn2nc(C(F)(F)F)c(C(F)(F)F)n2)nn1-c1ncccc1Cl [Example 394]	100%	100%	3.96	–
–	Cc1cc(I)cc(C(=O)NC(C)C2CC2)c1NC(=O)c1cc(Cn2nc(C(F)(F)F)c(C(F)(F)F)n2)nn1-c1ncccc1Cl (centres unmarked) [Example 391]	100%	100%	4.76	–
–	Cc1cc(Cl)cc(C(=O)NC(C)(C)C)c1NC(=O)c1cc(Cn2ncc(C3CC3)n2)nn1-c1ncccc1Cl [Example 46]	100%	–	3.6	–
–	CNC(=O)c1cc(C#N)cc(C)c1NC(=O)c1cc(Cn2cc(C3CC3)nn2)nn1-c1ncccc1Cl [Example 29]	100%	–	1.86	–
–	Cc1cc(I)cc(C(=O)NC2CCC2)c1NC(=O)c1cc(Cn2ncc(C(F)(F)F)n2)nn1-c1ncccc1Cl [Example 164]	100%	–	3.89	–
–	CNC(=O)c1cc(C#N)cc(C)c1NC(=O)c1cc(Cn2cc(C(C)C)nn2)nn1-c1ncccc1Cl [Example 30]	100%	–	2.03	–
